Test results from patent US12465611B2, “Compositions and methods for treatment of depression and other disorders” (priority 2019, dated 2025).
Several values for one entry are separate records, joined by “and”; a condition that tells them apart may be missing. Equal entries are not always repeated. Where two headings read alike, the source gives them in different places.

Key:
[1] = test system: tyramine pressor effect; details: cited from earlier work
[2] = oral tyramine with food; VanDenBerg et al., 2003; cited from earlier work
[3] = test system: tyramine pressor effect; details: cited from earlier work; remark: listed apart in the source
[4] = cited from earlier work
[5] = test system: tyramine pressor effect; details: for Average SBP increase: 40 mg of tyramine taken with a meal, TCP 20 mg, phenelzine 60 mg, brofaromine 100 mg, moclobemide 450 mg, selegiline 20 mg; for SBP increase with 40 mg of in-meal tyramine: atomoxetine 40 mg, nortriptyline 125 mg
Experimental: Thus, wherein the MAOI and the NRI are each administered with an NRI dosage sufficient to result in a blood pressure increase of less than about 20 mm HG in reaction to consuming about 40 mg or less, about 35 mg or less, about 30 mg or less, about 25 mg or less, about 20 mg or less, about 15 mg or less, about 10 mg or less, or about 5 mg or less of tyramine within the effective plasma concentration time period.
This study is designed to characterize the effects of PHZ on the responses to tyramine throughout the dosing interval when given alone, and with an inhibitor of NET to mitigate the potentiation of the tyramine pressor effect by PHZ.

[6] = test system: rat heart; details: given before TCP; Dostert et al., 1994; cited from earlier work
[7] = test system: tyramine pressor effect; details: with TCP; Pare et al., 1982; cited from earlier work
[8] = TCP postural hypotension: SBP drop from sitting to standing position; details: for Average Postural SBP Drop: sitting to standing
[9] = Plasma concentration and pharmacokinetics of MAOIs and NRIs; details: for Average Concentration: TCP plasma
From the text: As used herein, the phrase “controlled-release formulation time period” refers to the period of time during which an active agent in the formulation is released in a delayed but controlled fashion upon administration to a subject. An objective of controlled release is to avoid bioavailability peaks and valleys and achieve a prolonged time period where concentration of the formulation fluctuates in a narrow range. Another key objective is to lengthen the time period where the drug concentration remains above a target minimum concentration required for desired effectiveness.
As used herein, the term “half-life period” refers to the time period in which the initial concentration of a drug in the plasma is reduced by 50%.
As used herein, the term “effective plasma concentration time period” refers to a period of time during which an active agent is present in the plasma at an effective plasma concentration.

Compound: CNCCC=C1c2ccccc2CCc2ccccc21 [nortriptyline]
- relationship between Tyramine-relative response and blood concentration ([1]; FIG. 2): tyramine tolerance increases as the blood concentration of nortriptyline increases
- relation of tyramine sensitivity to plasma concentration ([1]; depressed patients treated with amitriptyline, Ghose and Coppen, 1977): decrease in tyramine sensitivity correlated with plasma concentrations of nortriptyline
- Tyramine pressor effect ([1]; in the presence of the NRI, Freyschuss et al., 1970): much more reduced

Compound: NCCc1ccc(O)cc1 [tyramine]
- reduction in AUC with food, average [2]: 53%
- reduction of Cmax with food, on average [2]: 72%
- in-meal tyramine dose producing 30 mm SBP increase relative to fasting oral dose ([3]; Gillman, 2011): 2 to 4 times

Compound: CNCCCC1c2ccccc2C=Cc2ccccc21 [protriptyline]
- half-life ([4]; plasma, elimination): 60 to 90 h

Compound: C#CCN(C)[C@H](C)Cc1ccccc1 [Selegiline]
- half-life ([4]; plasma, elimination): approximately 10 hours
- Average SBP increase [5]: 4.2 mm HG

Compound: NNCCc1ccccc1 [Phenelzine, phenelzine]
- reduction of fasting tyramine dose giving 30 mm Hg SBP increase ([3]; PHZ 60 mg, Bieck and Antonin, 1989): 13 fold
- fasting tyramine dose which results in a 30 mm Hg increase in systolic blood pressure ([3]; PHZ 60 mg, without drug 437 mg, Bieck and Antonin, 1989): 33 mg
- half-life ([4]; plasma, elimination): approximately 11.6 hours
- SBP increase with 40 mg of in-meal tyramine ([5]; PHZ without or with NRI: desipramine 100 mg): 12.1 mm HG

Compound: CCOc1ccccc1OC(c1ccccc1)C1CNCCO1 (centres unmarked) [reboxetine]
- effect on labelled tyramine levels in rat heart [6]: block the increased levels of labelled tyramine which accumulate in rat heart when given before TCP
- half-life ([4]; plasma, elimination): 13 h

Compound: CNCCCN1c2ccccc2CCc2ccccc21 [desipramine]
- reduction of sensitivity to TYR, average factor (increase of TYR dose which increases systolic blood pressure 30 mm Hg) ([3]; 100 mg dose of desipramine, Chalon et al. 2003): 5 fold
- half-life ([4]; plasma, elimination): 12 to 30 h and 21 h

Compound: CNCC[C@@H](Oc1ccccc1C)c1ccccc1 [atomoxetine]
- half-life ([4]; among extensive metabolizers): approximately 5 hours
- half-life ([4]; among slow metabolizers): over 10 hours

Compound: CN(C)CCC=C1c2ccccc2CCc2ccccc21 [amitriptyline]
- effect on sensitivity to intravenous tyramine [7]: reversed the increase in sensitivity to intravenous tyramine associated with administration of TCP

Compound: N[C@@H]1C[C@H]1c1ccccc1 (racemic) [TCP, tranylcypromine]
- highest drop in postural systolic blood pressure ([8]; immediate release formulation): approximately 25 mm HG
- Average Postural SBP Drop ([8]; 1 to 5 hours since dosing): 9.6 mm HG
- Average Postural SBP Drop ([8]; 7 to 10 hours since dosing): 3.4 mm HG
- time plasma concentration stays above minimum threshold of 25 ng/ml ([9]; 40 mg TCP dose, not extended release): 9 h
- average Cmax ([9]; TCP dose of 40 mg/d, immediate release formulation): approximately 230 ng/ml
- Average Concentration ([9]; 1 to 5 hours since dosing): 59.8 ng/mL
- Average Concentration ([9]; 7 to 10 hours since dosing): 17.5 ng/mL
- Average SBP increase [5]: 50.0 mm HG
- SBP increase with 40 mg of in-meal tyramine ([5]; TCP without or with NRI: desipramine 100 mg): 50 mm HG
